# Test results from patent US10058097B2, “Methods to increase corn productivity” (Valent BioSciences Corporation, priority 2016, dated 2018).
# What was measured:
# Assay type in all cases: in vivo
# corn plants [1] = assay: Greenhouse study: growth of corn after V3 spray with GA3 or GB, nine days; settings: non-stressed greenhouse; spray at V3; GA3 120 mg/liter, GB 3000 mg/liter; n = 7
# Protocol: (§1) In several of the following examples, corn was grown in greenhouse conditions, which are defined as follows. Seeds of a commercial hybrid variety were sown in Pro-Mix® BX (Pro-Mix is a registered trademark of Premier Horticulture Ltd.) with the addition of Osmocote (14-14-14) and gypsum in three-liter pots. Greenhouses were kept at 25±3° C. under a 16:8 hour photoperiod, with illumination at canopy level of ˜250 μmoles m^−2s^−1. Corn was typically fertigated with Peters 21-5-20+micronutrients, calcium ammonium nitrate and magnesium sulfate. Typical growth rates for corn under these conditions ranged from 4-5 cm/day.
# (§2) In most greenhouse studies, spray applications were made. These applications were made in a track sprayer outfitted with a 4001E Teejet® nozzle (Teejet is available from and a registered trademark of Spraying Systems Co., Glendale Heights, Ill., USA) and applied at 40 psi. Although application volumes did vary between some studies, generally, 30 gallons/acre of spray solution was applied. Following spray applications, plants were returned to the greenhouse. Typically, experiments were blocked according to plant size, and a randomized complete block design (RCB) was used.
# In a greenhouse study conducted in Long Grove, Ill., corn plants were sprayed at V3 stage with solutions containing a non-ionic surfactant (0.25%, v/v) at 30 gallons of spray solution/acre and growth was followed for nine days.
# (§3) Synergy was determined using the following formula, in which a synergy factor is calculated by the Abbott method: % Cexp=A+B−(AB/100), here % Cexp is the expected efficacy and “in which A and B are the increase in growth (or resistance to stress) levels given by the single [plant growth regulators]. If the ratio between the experimentally observed efficacy of the mixture Cobs and the expected efficacy of the mixture is greater than 1, synergistic interactions are present in the mixture” (Gisi, Synergistic Interaction of Fungicides in Mixtures, The American Phytopathological Society, 86:11, 1273-1279, 1996).
# Based on a conservative approach, synergy was determined to be present at ratios of ≥1.10. When grown under non-stressed conditions, GA3 growth was synergized by the addition of 3,000 mg/liter glycine betaine (“GB”), with a synergy factor of 1.65 for growth and 1.68 for growth rate while dry weight/plant was not synergistic with a synergy factor of 0.95.
# hybrid corn = assay: Corn trial Arcadia, IA 2015, yield; settings: field; spray at V7; GA3 120 mg/liter, GB 10000 mg/liter, (S)-ABA 9 mg/liter
# Text: In a corn trial conducted in Arcadia, Iowa, hybrid corn was sown Apr. 30, 2015 and sprayed at V7 with solutions containing a non-ionic surfactant (0.25%, v/v) at 15 gallons of spray volume.
# potted corn plants = assay: Chronic drought stress greenhouse study, potted corn, 14 days; settings: 20 Percent Volumetric Water Content, 120 mg/liter GA3, 3000 mg/liter GB, n = 5
# Protocol: In drought stress studies, corn plants were sprayed at the V4 stage with solutions containing a non-ionic surfactant (0.25%, v/v) at 30 gallons of spray solution/acre and growth was determined by change in height from time of treatment or fresh and dry shoot weight measurements 14 days later.
# In greenhouse drought stress studies, corn plants were treated and subsequently watered with an automated irrigation system that maintained the soil moisture in the pots at 45% or 20% volumetric water content (“VWC”). Plants set to 20% after treatment took about 4 days without the automated system adding water to those pots to reach 20% VWC and then the automated system added water as needed to maintain 20% VWC. Total soil moisture capacity was 45% VWC and 20% VWC represented drought stress conditions. This would be considered chronic stress, as a lower level of VWC was maintained throughout the experiment after treatment.
# greenhouse-grown maize [2] = assay: Leaf chlorophyll by SPAD meter, GA3 dose +/- GB; settings: without or with GB 10000 mg/liter
# Protocol: In the same study, leaf chlorophyll was monitored by measurements with a SPAD meter (Minolta Model 502; Ramsey, N.J.). In this study, the chlorophyll level in the most recently fully-expanded leaf was measured at five different points and the results averaged.
# greenhouse-grown maize [3] = assay: Greenhouse study: effect of GA3 + GB dose on growth, seven days; settings: GA3 120 mg/liter, GB 0 mg/liter; spray at V3; n = 7 plants
# Protocol: as §1, §2
# In a greenhouse study, plants were sprayed at V3 stage with solutions containing a non-ionic surfactant (0.25%, v/v) at 30 gallons of spray solution/acre and growth was followed for seven days.
# corn = assay: Field study Woodstock, Ill. 2014, corn growth
# Protocol: A field study was conducted at Woodstock, Ill. in 2014. Seeds of a central corn belt hybrid with 111 days to maturity were sown on May 20, 2014. Plants were sprayed at V4 with solutions containing a non-ionic surfactant (0.25%, v/v) at 15 gallons of spray solution/acre. Growth was followed by measuring shoot height in centimeters for 60 plants in each replicate at 7 and 14 days post spraying.
# corn plants [4] = assay: Chilling stress study (10° C. for five days) after spray with GA3 or GB; settings: chilling stress at 10° C. for five days; GA3 120 mg/liter, GB 3000 mg/liter; n = 7 plants
# Protocol: In stress studies, plants were subjected to various stresses. In cold stress studies, after spraying, plants were grown in the greenhouse for an additional 48 hours before being measured and moved to a CMP6050 CONVIRON® chamber kept at 10° C. (Conviron is a registered trademark of Controlled Environments Limited Corporation). Illumination was at ˜225 μMoles, and light:dark conditions were on a 12:12 hour photoperiod. After 120 hours of chilling, plants were removed from the cold, measured, and returned to the greenhouse for 48 hours prior to harvest.
# as §3
# In a greenhouse and growth room study conducted in Long Grove, Ill., corn plants of a commonly grown hybrid were subjected to the following stress regimen: at two days post-foliar application, plants were moved into a controlled environment chamber, where the temperature was maintained at 10° C. with a 12:12 hour photoperiod for five days. At the end of the chilling period, the corn was moved back to the greenhouse for two days before destructive harvest.
# [5] = field, spray at V4, GA3 120 mg/liter, GB 10,000 mg/liter
smiles,measurement,setting,value
"C=C1C[C@]23C[C@@]1(O)CC[C@H]2[C@@]12C=C[C@H](O)[C@@](C)(C(=O)O1)[C@H]2[C@@H]3C(=O)O [GA3, gibberellic acid]",Dry Weight/Plant,corn plants [1],2.92 g
same,Growth Rate,corn plants [1],4.76 cm/day
same,Growth over 9 days,corn plants [1],42.9 cm
same,Yield,hybrid corn,185.8 bu/acre
same,Percent Dry Weight of Drought Stressed Control,potted corn plants,103.32%
same,Percent Fresh Weight of Drought Stressed Control,potted corn plants,106.11%
same,Chlorophyll (SPAD reading) 14 days,greenhouse-grown maize [2]; GA3 30 mg/liter,33.1 SPAD reading
same,Chlorophyll (SPAD reading) 14 days,greenhouse-grown maize [2]; GA3 60 mg/liter,32.9 SPAD reading
same,Chlorophyll (SPAD reading) 14 days,greenhouse-grown maize [2]; GA3 120 mg/liter,31.6 SPAD reading
same,Chlorophyll (SPAD reading) 14 days,greenhouse-grown maize [2]; GA3 240 mg/liter,31.1 SPAD reading
same,Growth Rate,greenhouse-grown maize [3],4.86 cm/day
same,Plant Growth over 7 days,greenhouse-grown maize [3],34.01 cm
same,Growth Rate from 7-14 days,corn; [5],4.89 cm/day
same,Height at 7 days post spray,corn; [5],68.2 centimeters
same,Height at 14 days post spray,corn; [5],102.4 centimeters
same,growth increase over the control plants (surfactant alone),corn; one week after treatment application,6.9%
same,Growth Rate,corn plants [4],2.38 cm/day
same,Growth over 9 days,corn plants [4],21.43 cm
same,Leaf Area of L1-L5,corn plants [4],324.24 cm^2
